Assay results as given in patent US5849735A, “Tricyclic benzazepine vasopressin antagonists” (American Cyanamid Company, priority 1995, dated 1998).

Key:
[1] = system: vasopressin V2; assay: Vasopressin V2 Antagonist Activity in Conscious Hydrated Rats; format: in vivo, rat; details: oral 10 mg/kg, N=2, AVP challenge
Procedure: Vasopressin V2 Antagonist Activity in Conscious Hydrated Rats Conscious hydrated rats are treated with compounds under study from 0.1 to 100 mg/kg orally or vehicle. Two to four rats are used for each compound. One hour later, arginine vasopressin (AVP, antidiuretic Hormone, ADH) dissolved in peanut oil is administered at […] intraperitoneally. Two rats in each test would not receive arginine vasopressin but only the vehicle (peanut oil) to serve as water-loading control. Twenty minutes later each rat is given 30 mL/kg of deionized water orally by gavage and is placed individually in a metabolic cage equipped with a funnel and a graduated glass cylinder to collect urine for four hours. Urine volume is measure and osmolality analyzed by use of a Fiske One-Ten osmometer (Fiske Assoc., Norwood, Mass., USA). Urinary sodium, potassium, and chloride are analyzed by use of ion-specific electrodes in a Beckman E3 (Electrolye 3) Analyzer. In the following results, […] and decreased osmolality relative to AVP-control indicates activity.

[2] = target: T1, oxytocin receptor (rat uteri) (Rattus norvegicus, UniProt P70536); assay: Oxytocin Receptor Binding; parameters: species or system rat (Sprague-Dawley); details: for IC50: [3H]oxytocin displacement
T1 construct: The uteri are dissected out, cleaned of fat and connective tissues; from tissue; host or cells: uteri of diethylstilbestrol-treated female Sprague-Dawley rats
T1 sequence (P70536 1-388): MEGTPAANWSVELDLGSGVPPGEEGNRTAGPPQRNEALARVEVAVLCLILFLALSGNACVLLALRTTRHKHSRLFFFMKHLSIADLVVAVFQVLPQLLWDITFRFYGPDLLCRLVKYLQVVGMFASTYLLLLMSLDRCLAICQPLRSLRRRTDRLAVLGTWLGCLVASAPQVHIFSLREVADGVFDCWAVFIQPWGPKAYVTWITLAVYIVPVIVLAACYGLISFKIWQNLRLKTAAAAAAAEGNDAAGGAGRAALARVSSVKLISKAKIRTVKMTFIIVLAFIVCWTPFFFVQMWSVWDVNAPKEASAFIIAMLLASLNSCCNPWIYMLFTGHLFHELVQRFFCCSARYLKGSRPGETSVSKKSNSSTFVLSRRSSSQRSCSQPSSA
Procedure: Oxytocin Receptor Binding
Female Sprague-Dawley rats weighing approximately 200-250 g are injected intramuscularly (i.m.) with 0.3 mg/kg of body weight of diethylstilbestrol (DES). The rats are sacrificed 18 hours later under pentobarbital anesthesia. The uteri are dissected out, cleaned of fat and connective tissues and rinsed in 50 ml of normal saline. The tissue pooled from six rats is homogenized in 50 ml of […] Tris. HCl, containing 0.5 mM dithiothreitol and 1.0 mM EDTA, adjusted to pH 7.4, using a polytron at setting 6 with three passes of 10 sec each. The homogenate is passed through two (2) layers of cheesecloth and the filtrate centrifuged at 1000×g for 10 minutes. The clear supernatant is removed and recentrifuged at 165,000×g for 30 minutes. The resulting pellet containing the oxytocin receptors is resuspended in 50.0 mM Tris.HCl containing 5.0 mM MgCl2 at pH 7.4, to give a protein concentration of 2.5 mg/ml of tissue suspension. This preparation is used in subsequent binding assays with [^3 H]oxytocin.
Binding of 3,5-[^3 H]Oxytocin ([^3 H]OT) to its receptors is done in microtiter plates using [^3 H]OT, at various concentrations, in an assay buffer of 50.0 mM Tris.HCI, pH 7.4 and containing 5.0 mM MgCl2, and a mixture of protease inhibitors: BSA, 0.1 mg; aprotinin, 1.0 mg; 1,10-phenanthroline, 2.0 mg; […], 10.0 mg; and PMSF, 0.3 mg per 100 ml of buffer solution. Non-specific binding is determined in the presence of 1.0 uM unlabeled OT. The binding reaction is terminated after 60 minutes, at 22° C., by rapid filtration through glass fiber filters using a Brandel® cell harvester (Biomedical Research and Development Laboratories, Inc., Gaithersburg, Md.). Competition experiments are conducted at equilibrium using 1.0 nM [^3 H]OT and varying the concentration of the displacing agents. The concentrations of agent displacing 50% of [^3 H]OT at its sites (IC50) are calculated by a computer assisted LUNDON-2 program (LUNDON SOFTWARE INC., Ohio, USA).

IC50 [2] | inhibition at 10 µM [2] | inhibition at 1 µM [2] | SMILES | Osmolality [1] | Urine Volume [1]
1100 nM | 86% |  | Cc1ccc(F)cc1C(=O)Nc1ccc(C(=O)N2Cc3sccc3Cc3ccccc32)cn1 [Example 2, N-[5-[(9,10-Dihydro-4H-thieno[2,3-c][1]benzazepin-9-yl)carbonyl]-2-pyridinyl]-5-fluoro-2-methylbenzamide] | 591 MOsm/kg | 16.5 ml/4 hrs
 | 20% |  | Cc1ccc(F)cc1C(=O)Nc1ccc(C(=O)N2Cc3ccccc3Oc3ncccc32)cn1 [Example 4, N-[5-(Pyrido[2,3-b][1,4]benzoxazepin-5(6H)-ylcarbonyl)-2-pyridinyl]-5-fluoro-2-methylbenzamide] | 878 MOsm/kg | 6.8 ml/4 hrs
1800 nM | 97% |  | CCCCOc1ccc(C(=O)N2Cc3ccccc3Cc3ccccc32)cc1 [Example 24] | 1492 MOsm/kg | 4.3 ml/4 hrs
2500 nM | 73% |  | O=C(c1ccc(-c2ccccc2)cc1)N1Cc2ccccc2Oc2ccccc21 [Example 26, 10-([1,1'-Biphenyl]-4-ylcarbonyl)-10,11-dihydrodibenz[b,f][1,4]oxazepine] | 1058 MOsm/kg | 4.5 ml/4 hrs
 |  | 83% | O=C(c1ccc(-c2ccccc2)cc1)N1Cc2sccc2Cc2ccccc21 [Example 27, 9-([1,1'-Biphenyl]-4-ylcarbonyl)-9,10-dihydro-4H-thieno[2,3-c][1]benzazepine] | 1317 MOsm/kg | 3.3 ml/4 hrs
1800 nM | 88% |  | O=C(c1ccccc1)c1ccc(C(=O)N2Cc3ccccc3Oc3ccccc32)cc1 [Example 32, 10-(4-Benzoylbenzoyl)-10,11-dihydrodibenz[b,f][1,4]oxazepine] | 726 MOsm/kg | 9.3 ml/4 hrs
 |  | 54% | Cc1ccc(F)cc1C(=O)Nc1ccc(C(=O)N2Cc3ccccc3CCc3ccccc32)cn1 [Example 45] | 979 MOsm/kg | 6.6 ml/4 hrs
